Paper PMC9909137 (Archives of Virology, 2023)
Where two headings read alike, the source gives them in different places.

Experiments:
[1] = tested on: A/teal/Egypt/MB.D125OP/2015 (H7N3, 125OP); assay: organism not typed; assay type: cell-based, avian influenza H7N3 virus; conditions: MDCK, 72 h, read-out: IC50 125OP
[2] = tested on: A/teal/Egypt/MB.D128OP/2015 (H7N3, 128OP); assay: organism not typed; assay type: cell-based, avian influenza H7N3 virus; conditions: read-out: IC50 128OP
[3] = tested on: A/teal/Egypt/MB.D487OP/2016 (H7N3, 487OP); assay: organism not typed; assay type: cell-based, avian influenza H7N3 virus; conditions: MDCK, 72 h, read-out: IC50 487OP
[4] = tested on: A/northern shoveler/Egypt/MB.D690OP/2016 (H7N3, 690OP); assay: organism not typed; assay type: cell-based, avian influenza H7N3 virus; conditions: MDCK, 72 h, read-out: IC50 690OP
[5] = tested on: A/Puerto Rico/8/34 (H1N1); assay: microbe, parasite or virus in culture; assay type: cell-based; conditions: Influenza A virus, H1N1, MDCK, 72 h, read-out: IC50 H1N1
in vitro = conditions: dog
[6] = tested on: Madin-Darby canine kidney (MDCK) cells; conditions: dog

Row | SMILES | IC50 [1] [µM] | IC50 ([2]; MDCK, 72 h) [µM] | IC50 [3] [µM] | IC50 [4] [µM] | IC50 [5] [µM] | CC50 (in vitro) [µM] | CC50 [6] [µM] | IC50 [2] [µM]
1 | NC12CC3CC(CC(C3)C1)C2 [Amantadine, amantadine] | 17 | 45.2 | 5.17 | 6.5 | 77.3 | 584 | – | –
2 | CC(=O)N[C@H]1[C@H]([C@H](O)[C@H](O)CO)OC(C(=O)O)=C[C@@H]1N=C(N)N [Zanamivir, zanamivir] | 17.1 | 85 | 14.1 | 23.3 | 180 | 1110 | – | –
3 | CCC(CC)COC(=O)[C@H](C)N[P@](=O)(OC[C@H]1O[C@@](C#N)(c2ccc3c(N)ncnn23)[C@H](O)[C@@H]1O)Oc1ccccc1 [Remdesivir, remdesivir] | 44.5 | 26 | 19.1 | 41.6 | 140 | – | 997 | –
4 | CCOC(=O)C1=C[C@@H](OC(CC)CC)[C@H](NC(C)=O)[C@@H](N)C1 [Oseltamivir, oseltamivir] | 408 | 85.7 | 15.7 | 6.46 | 51.2 | 516 | – | –
5 | NC(=O)c1nc(F)c[nH]c1=O [Favipiravir, favipiravir] | 3.9 | 6.02 | 5.4 | 4.5 | 57.7 | 1250 | – | 6.02
